In US20030139469A1, “Use of inhibitors of soluble epoxide hydrolase to inhibit vascular smooth muscle cell proliferation” (THE REGENTS OF THE UNIVERSITY OF CALIFORNIA, priority 2002, published 2003):

Legend:
human VSM cells [1] = assay: trypan blue exclusion, VSM cells; assay type: cell-based; details: 12 μM
Procedure: Evaluation of Cell Membrane Integrity and Toxicity. To evaluate the toxicity of compounds, as indicated by cellular trypan blue permeability, cells were plated in 35 mm dishes. After two days, the medium in the dish was replaced with fresh medium supplemented with the compound of interest or vehicle. At the indicated time post-treatment, the supernatant was removed and adherent cells were removed using trypsin. After dislodging the adherent cells, the cell suspension was pooled with the supernatant and centrifuged. The resulting cell pellet was resuspended and a trypan blue solution (0.4% in normal saline) was added to the aliquot. After incubating for approximately 5 minutes, the sample was evaluated by light microscopy. To evaluate lactate dehydrogenase (LDH) release, cells were harvested and plated onto 24 well plates and serum starved for one to two days. Test compounds were added and after 65 hours, media was removed for measurement of LDH activity. LDH activity was determined by NADH oxidation using Sigma Tox-7 in vitro toxicology kit and reported as the amount of LDH activity in the media.

VSM cells = assay: thymidine uptake into VSM cells; assay type: cell-based, human; details: 12 μM CDU vs DMSO vehicle, seconds to minutes, FIG. 1e
Procedure: FIG. 1e. CDU at the indicated concentrations was added to non-serum-starved cells and uptake of thymidine into the cells was assessed at the indicated times after its addition as described in Example 1. Error bars represent SD; *p<0.05 compared to (for FIGS. 1a and 1d) PDGF alone or (for FIG. 1b) serum alone or (for FIG. 1e) DMSO. Data shown are representative of at least two independent experiments.
Thymidine Uptake. To quantify thymidine uptake, 1.73×10^4 cells were distributed per well in a 24-well plate. […] The media was then adjusted to […] ^3H-methyl-thymidine (1 mCi/mL, 25 Ci/mmol, Amersham-Pharmacia). At the indicated times, medium was aspirated, the cells were washed three times with ice-cold PBS, and then incubated in 500 μL 1 M NaOH for 20 min. The mixture was neutralized with 0.5 mL 1 M HCl and diluted into scintillation fluid for liquid scintillation counting.

human VSM cells [2] = assay: [3H]thymidine incorporation into DNA, human VSM cells; assay type: cell-based; details: for inhibition of DNA synthesis ([3H]thymidine incorporation): CDU 1.0 to 20 μM
Procedure: Human VSM cells were grown to 80-90% confluence and serum-starved (except where indicated) for 1 day.
FIG. 1a. Immediately following PDGF-BB (30 ng/ml) stimulation, CDU or DMSO vehicle (as a control, indicated on chart as “cont”) was added at the concentrations indicated. After 18 h, thymidine incorporation into DNA was assessed as described in Example 1.
FIG. 1b. Human VSM cells grown and challenged as in FIG. 1a, but the cells were stimulated with 10% serum rather than with PDGF-BB.
Human VSM cells were grown to 80-90% confluence and serum-starved as in FIG. 1. PDGF-BB (30 ng/ml) was added to all but control wells, followed immediately by the addition of mixed EETs and/or CDU at the concentrations indicated of total EETs. [^3H]Thymidine was added for the last 6 h of incubation, and its incorporation into DNA was assessed as described in Materials and Methods. Error bars represent SD; *p<0.05 compared to PDGF alone. Data shown are representative of two independent experiments.
Human VSM cells were grown to 80-90% confluence and serum-starved as in FIG. 1. PDGF-BB (30 ng/ml) was added to all but control wells and, at the times indicated after PDGF addition, CDU (10 μM) was added. At time=0, CDU and PDGF were added simultaneously. [^3H]Thymidine was added for the last 6 h of incubation and its incorporation into DNA was assessed as described in Example 1. Error bars represent SD; *p<0.05 compared to PDGF alone. Data shown are representative of three independent experiments.
Cell Culture. Human aortic smooth muscle cells were obtained from Clonetics (San Diego Calif.) at passage 3 and were maintained in MCBD 131 media supplemented with 2.5% FBS, 5 mg/L bovine insulin, 2 ug/L human recombinant EGF, 1 ug/L human recombinant PDGF-BB (“PDGF” is platelet derived growth factor, which is composed of a dimer of two chains, the A chain and the B chain, “PDGF-BB is a 24.3 kD homodimer of two B chains), 100 u/ml of penicillin, 100 u/ml streptomycin, and 2.5 ug/ml amphotericin B. The cells were growth-arrested by placing them in quiescence medium containing MCDB 131 medium, 20 mM HEPES (pH 7.4), 5 mg/ml transferrin, 0.5 mg/ml BSA, 50 U/ml penicillin, 50 U/ml streptomycin, and 2.5 ug/ml amphotericin B. Quiescence medium was changed daily for 1-2 days before each experiment. HL-60 cells were obtained from ATCC or from D. Hyde (UC Davis). HL-60 cells were cultured at cell densities between 2×10^5 and 8×10^5 cells/mL in RPMI-1640 (Mediatech) supplemented with 10% fetal calf serum.
Proliferation Assays. [^3H]thymidine incorporation assays were performed. […] At the indicated times, the number of cells in the plate was calculated by subjecting the cells to trypsinization and the cell density quantitated by light microscopy using a hemocytometer.

CCCCCCCCCCCCNC(=O)NC1CCCCC1 [CDU, 1-cyclohexyl-3-dodecyl urea]
cells stained blue (trypan blue) (human VSM cells [1]; 8 h): 3.4% | cells stained blue (trypan blue) (human VSM cells [1]; 24 h): 3.0% | cellular uptake of thymidine (VSM cells): occurs to a similar extent | time of CDU addition after PDGF with most profound inhibition (human VSM cells [2]; 10 μM CDU, PDGF-BB 30 ng/ml, FIG. 5): 4 h | inhibition of DNA synthesis ([3H]thymidine incorporation) (human VSM cells [2]; 10% serum stimulated, FIG. 1b): dose-dependent inhibition of DNA synthesis | inhibition of DNA synthesis ([3H]thymidine incorporation) (human VSM cells [2]; PDGF-BB (30 ng/ml) stimulated, 18 h, FIG. 1a): dose-dependent inhibition of DNA synthesis | PDGF-stimulated [3H]thymidine incorporation (human VSM cells [2]; PDGF-BB, EETs 5 to 10 μM total, CDU 2.5 and 10 μM, separately or together, FIG. 3): inhibition of PDGF-stimulated [^3H]thymidine incorporation
